Measured values taken from patent publication US20190178896A1, “MARKER FOR THE CLASSIFICATION, DIAGNOSIS AND TREATMENT OF SCOLIOSIS” (Chu Sainte-Justine, priority 2013, published 2019).
Where a name gives a salt, the structure may show the parent alone. Read-outs that look alike come from different tables or passages of the source.

Tests used:
Gs and Gq proteins = test: Gs and Gq siRNA knockdown effect on impedance signature of GiPCR agonists in osteoblasts; assay type: cell-based, human
Description: Osteoblasts from control subjects and AIS patients of each functional group were transfected with scramble siRNA, Gs siRNA, or Gq siRNA. Efficiency of siRNA in control and AIS groups was verified with qPCR and Western blot analyses 48 hours after transfection, and response to stimulation with GiPCR agonist of cluster I, cluster II, cluster III and cluster IV was evaluated by challenging cells with 10 μM of (FIG. 14A-14D) LPA, (FIG. 14EA-14H) CB65, (FIG. 14I-14L) Somatostatin and (FIG. 14M-14P) Apelin-17, respectively. […] The impedance represented in y-axis as dziec was measured every 2 sec. Data are representative of impedance signatures generated by CellKey™ system in osteoblasts from 12 individuals tested three times in duplicate for each group.;
All Gi1, Gi2, Gi3, Gs and scrambled siRNA were obtained from Ambion (Ambion USA). The sequences used for gene silencing are shown in supplemental Table 3. Osteoblasts from control subjects and AIS patients were transiently transfected in serum-free medium, using Lipofectamine RNAiMAX reagent (Invitrogen) according to the manufacturer's instructions and functional experiments were performed 48 h post transfection. The gene knockdown was evaluated by quantitative real-time PCR (qPCR).
The possibility that the disparity in the shape of impedance among AIS groups in response to GiPCR activation implicates a component of Gs or Gq proteins-dependent response was then […] examined For this purpose, the small interference RNA (siRNA) approach was used to knockdown Gs or Gq proteins prior to stimulate cells.

[1] = system: osteoblasts from control and AIS patients; test: cells
Description: The targeted endogenous receptors are shown in parentheses. The impedance represented in y-axis as dziec was measured by the Cellkey™ system every 2 sec. Data are representative of impedance signature in osteoblasts from 12 individuals tested three times in duplicate for each group;
A total of ten compounds were tested and the representative refraction index curves generated by each of these compounds in control and AIS osteoblasts are illustrated in FIGS. 10A-10J).

[2] = system: PBMCs from patients with IS; test: Effect of rOPN on cellular response to Gi stimulation (somatostatin) in PBMCs, CDS-based system; assay type: cell-based, human; details: 0.5 μg/mL rOPN 18 h, 10 μM somatostatin
Description: Cells were serum-starved for 18 h in the presence or absence of 0.5 μg/mL rOPN and then stimulated with 10 μM of somatostatin to initiate Gi-mediated cellular response. Data in the graph were generated from maximum-minimum impedance and correspond to the average of response in duplicate;
3. Functional Assay: Day 1: 1. Place PBMCs aliquot from liquid nitrogen in water bath at 37° C. for a minute or until defrosted. 2. Transfer the cell suspension to a 50 mL tube with a sterile pipette. 3. Add 15 mL of Complete media and spin the cells down at 200×g for 5 minutes at room temperature. 4. Remove the supernatant by aspiration. 5. Gently suspend cell pellet in 1 mL of PHA media. 6. Complete the volume to 20 mL with the same media. 7. Cap the tube loosely to allow air to enter. 8. Leave the tube overnight at 37 ° C. in a CO2 incubator to allow quiescent lymphocytes to transform into rapidly-proliferating lymphoblasts.
Day 2: 1. Take the tube out of the incubator, screw the caps completely and spin the cells down at 200×g for 5 min at room temperature. 2. Remove the supernatant by aspiration. 3. Gently suspend cell pellet in 1 mL of complete media. 4. Complete the volume to 20 mL with the same media. 5. Cap the tube loosely to allow air to enter. 6. Leave the tube overnight at 37° C. in a CO2 incubator to expand cell numbers.
Day 3: 1. Take the tube out of the incubator, screw the caps completely and spin the cells down at 200×g for […] at room temperature. 2. Remove the supernatant by aspiration. 3. Wash cells twice with 10 mL of RPMI-1640 (media developed for growing human normal and neoplastic leukocytes (peripheral blood lymphocytes)) by centrifugation at 200×g for […] at room temperature. 4. Gently re-suspend the cell pellet in 600 μL of RPMI-1640. 5. Measure the cell concentration and viability, using an automated cell counter and viability analyzer. 6. Add appropriate volume of RPMI-1640 to adjust to a cell concentration of 1.5×10^5 cell/20 μL. 7. Treat cells with recombinant OPN (rOPN) or vehicle (PBS). 7.1 Transfer 100 μL of cell suspension to two sterile 1.5 ml eppendorf tubes. […]

[3] = Homo sapiens, Osteoblast, read-out: Control EC50 (nM)
[4] = Homo sapiens, Osteoblast, read-out: FG1 EC50 (nM)
[5] = Homo sapiens, Osteoblast, read-out: FG2 EC50 (nM)
[6] = Homo sapiens, Osteoblast, read-out: FG3 EC50 (nM)

EC50 [1, 3] [nM]	EC50 [1, 4] [nM]	EC50 [1, 5] [nM]	EC50 [1, 6] [nM]	Compound	Gs coupling (permissive) of agonist/GiPCR (Gs and Gq proteins; FG1)	also measured
–	–	–	–	CSCC[C@H](NC(=O)[C@@H]1CCCN1C(=O)CNC(=O)[C@H](CCCCN)NC(=O)[C@H](Cc1c[nH]cn1)NC(=O)[C@H](CO)NC(=O)[C@H](CC(C)C)NC(=O)[C@H](CCCNC(=N)N)NC(=O)[C@@H]1CCCN1C(=O)[C@H](CCCNC(=N)N)NC(=O)[C@H](CCC(N)=O)NC(=O)[C@H](CCCNC(=N)N)NC(=O)[C@H](CCCNC(=N)N)NC(=O)[C@H](Cc1ccccc1)NC(=O)[C@@H](N)CCCCN)C(=O)N1CCC[C@H]1C(=O)N[C@@H](Cc1ccccc1)C(=O)O [Apelin-17]	Apelin-17/Gs−	Gs coupling (permissive) of agonist/GiPCR (Gs and Gq proteins; FG2): Apelin-17/Gs−; Gs coupling (permissive) of agonist/GiPCR (Gs and Gq proteins; FG3): Apelin-17/Gs−
22.3 ± 1.7	22.3 ± 2.3	22.5 ± 1.6	22.4 ± 1.5	c1ccc(N2CCN(CCCOc3ccc4c(c3)OCO4)CC2)cc1 [BP554, 1-[3-(3,4-Methylenedioxyphenoxy)propyl]-4-phenyl-piperazine maleate]	–	–
33.4 ± 8.4	42.3 ± 9.4	48.7 ± 6.4	45.8 ± 5.3	COc1ccc2[nH]cc(CCNC(C)=O)c2c1 [Melatonin, melatonin]	–	–
16.5 ± 2.3	18.5 ± 4.2	16.6 ± 1.6	17.8 ± 1.3	Brc1c(NC2=NCCN2)ccc2nccnc12 [UK14304, 5-bromo-N-(4,5-dihydro-1H-imidazol-2-yl)-6-quinoxalinamine]	–	–
–	–	–	–	Lysophosphatidic acid [LPA]	LPA/Gs+	EC50 ([1]; read-out: Control EC50, impedance response, osteoblasts from control subjects): 8.52 ± 1.5 nM; EC50 ([1]; read-out: FG1 EC50, impedance response, osteoblasts from AIS patients of group FG1): 8.78 ± 0.6 nM; EC50 ([1]; read-out: FG2 EC50, impedance response, osteoblasts from AIS patients of group FG2): 8.54 ± 1.4 nM; EC50 ([1]; read-out: FG3 EC50, impedance response, osteoblasts from AIS patients of group FG3): 8.59 ± 1.2 nM; Gq coupling (permissive) of agonist/GiPCR (Gs and Gq proteins; FG2): LPA/Gq+; Gq coupling (permissive) of agonist/GiPCR (Gs and Gq proteins; FG3): LPA/Gq+
–	–	–	–	OPN: recombinant human osteopontin (R & D Systems)	–	reduction of response to Gi stimulation following rOPN treatment ([2]; patient 370): less than 50%; reduction of response to Gi stimulation following rOPN treatment ([2]; patients 345 and 382): more than 50%; OPN effect on the response to Gi stimulation ([2]; patients 353 and 371): increased the response

Compound	EC50 [1, 3] [nM]	EC50 [1, 4] [nM]	EC50 [1, 5] [nM]	EC50 [1, 6] [nM]	Gs coupling (permissive) of agonist/GiPCR (Gs and Gq proteins; FG1)	also measured
O=C(NC1CCCCC1)c1cn(CCN2CCOCC2)c2cc(Cl)ccc2c1=O [CB65, N-Cyclohexyl-7-chloro-1-[2-(4-morpholinyl)ethyl]quinolin-4(1H)-one-3-carboxamide]	13.9 ± 1.2	14 ± 1.2	13.7 ± 1.2	13.9 ± 1.3	CB65/Gs+	Gs coupling (permissive) of agonist/GiPCR (Gs and Gq proteins; FG2): CB65/Gs−; Gs coupling (permissive) of agonist/GiPCR (Gs and Gq proteins; FG3): CB65/Gs−
CCNC(=O)[C@H]1O[C@@H](n2cnc3c(N)ncnc32)[C@H](O)[C@@H]1O [NECA, 1-(6-Amino-9H-purin-9-yl)-1-deoxy-N-ethyl-β-D-ribofuranuronamide]	20.9 ± 2.2	20.9 ± 1.7	20.8 ± 1.2	22.2 ± 2.2	–	–
